Each block holds one molecule with its values, some of them ahead of it.
Key:
[1] = average particle size of pulverized benzoyl urea compound by light scattering (Autosizer Model 700); assay type: physicochemical; details: for average particle size in the liquid formulation: 3000 rpm 45 minutes, autoclaved
Method: Compound No. 3, No. 5 or No. 6 (4 w/v%) as the benzoyl urea compound and polyoxyethylene hardened caster oil 60 (HCO-60, manufactured by Nikko Chemical K.K., 10 w/v%) as a dispersant were suspended in water, and after an addition of glass beads (from 1 to 1.4 mm in diameter) in an amount of the same volume, subjected to rotary pulverization by Dyno-mill for 20 minutes.
(§1) The average particle size was measured in such a manner that the benzoyl urea compound was diluted to a concentration of 20 μg/ml and the average particle size was measured by a light scattering method (Autosizer, Model 700, manufactured by Maruburn Company) (the same applies hereinafter).
Compound No. 3 (4 w/v%) and the following dispersant (10 w/v%) were suspended in water, and after an addition of glass beads (from 1 to 1.4 mm in diameter) in an amount of the same volume, subjected to rotary pulverization by Dyno-mill for 45 minutes. As the dispersant, polyoxyethylene hardened caster oil 60 (HCO-60, manufactured by Nikko Chemical K.K.), polyoxyethylene (160) polyoxypropylene (30) glycol (F68, manufactured by Asahi Denka Kogyo K.K.), a decaglycerol fatty acid ester (Decagly.ester, Nikko Chemical K.K.) or polysolbate 80 (Tween 80, manufactured by Nakarai Kagaku K.K.) was employed.
Compound No. 3 (from 10 to 40 w/v%), HCO-60 (5 w/v%) as a dispersant and glass beads (from 1 to 1.5 mm in diameter) were subjected to rotary pulverization by Dyno-mill for pulverization time of 30 minutes. Then, the average particle size of the benzoyl urea compound was measured.
Compound No. 3 (20 w/v%), HCO-60 (from 2.5 to 10 w/v%) as the dispersant and glass beads (from 1 to 1.5 mm in diameter) were subjected to rotary pulverization by Dyno-mill for a pulverization time of 30 minutes. Then, the average particle size of the benzoyl urea compound was measured.
Compound No. 3 (40 w/v%), HCO-60 (5 w/v%) as the dispersant and glass beads (three types having a diameter of from 0.25 to 0.5, from 0.5 to 0.75 and from 1 to 1.5 mm, respectively) were subjected to rotary pulverization by Dyno-mill for a pulverization time of 30 minutes. Then, the average particle size of the benzoyl urea compound was measured.
Compound No. 3 (40 w/v%), HCO-60 (5 w/v%) as the dispersant and glass beads (from 0.25 to 0.5 mm in diameter), were subjected to rotary pulverization by Dyno-mill for a pulverization time of from 10 to 60 minutes. Then, the average particle size of the benzoyl urea compound was measured.
(§2) Compound No. 3 (20 g) was suspended in 50 ml of a 5 w/v% HCO-60 aqueous solution, and the suspension was wet pulverized (3000 rpm for 45 minutes) by Dyno-mill by using 50 g of glass beads (from 0.25 to 0.5 mm in diameter). After the completion of the pulverization, glass beads were removed by sieving, to obtain a wet pulverized formulation of Compound No. 3.
(§3) The wet pulverized formulation thus obtained was sterilized in an autoclave to obtain a liquid formulation of a final form. The average particle size of Compound No. 3 in this liquid formulation was 0.68 μm. Instead of the sterilization in an autoclave, it is possible to employ filtration to remove bacteria. If necessary, a sweetening agent, a perfume, etc. may be added.
as §2, with “(15” for “(20”, “decaglycerol monolaurate (Decagline 1 L, manufactured by Nikko Chemical K.K.)” for “HCO-60”
as §3, with “0.75” for “0.68”, “added. […]” for “added.”

[2] = stability of particles in the liquid composition on storage at room temperature; assay type: physicochemical; details: compound 40 w/v%, HCO-60 10 w/v%
Method: as §1
The stability of particles in the liquid composition of the benzoyl urea compound was investigated.
Namely, a wet pulverization formulation comprising compound No. 3 (40 w/v%) and HCO-60 (10 w/v%) was stored at room temperature, whereby the stability of the particles was investigated.

[3] = oral administration of wet pulverized formulations to rats, AUC of concentration in blood; assay type: in vivo, Wister male rats; details: rat, plasma, 50 mg/kg, 50 mg/5 ml/kg, compound 40 w/v%, HCO-60 10 w/v%
Method: Each of four wet pulverized formulations having different particle sizes [composition: Compound No. 3 (40 w/v%) and HCO-60 (10 w/v%)] was forcibly orally administered by an oral sonde to a group of 5 Wister male rats (body weight: 200 g) starved for 18 hours (dose: 50 mg/5 ml/kg). Then, blood (0.3 ml) was periodically sampled with heparin from the jugular vein. The blood thus obtained was subjected to separation of the plasma and removal of proteins by using acetonitrile, and then Compound No. 3 was quantitatively analyzed by a high speed liquid chromatography using a reversed phase column (Nova Pak C18, 5μ, 3.9 mm in diameter×150 mm, Nihon Waters), and the curve of the concentration in blood was prepared. From the curve of the concentration in blood, the area below the curve was obtained by using a trapezoid formula and presented as AUC (Area Under the Curve).

[4] = compound 4 w/v%, HCO-60 10 w/v%, glass beads 1 to 1.4 mm, Dyno-mill 20 minutes

Particle size (average) [1, 4]: 1.13 μm
SMILES: O=C(NC(=O)c1ccccc1[N+](=O)[O-])Nc1ccc(Oc2ncc(Cl)cn2)c(C(F)(F)F)c1 [Compound No. 5]

average particle size in the liquid formulation ([1]; Example 1: 20 g in 50 ml 5 w/v% HCO-60, beads 0.25 to 0.5 mm): 0.68 μm
average particle size in the liquid formulation ([1]; Example 3: 15 g in 50 ml 5 w/v% decaglycerol monolaurate, beads 0.25 to 0.5 mm): 0.75 μm
Particle size (average) [1, 4]: 0.43 μm
Particle size (average) ([1]; diameter of beads 0.25-0.5 mm, compound 40 w/v%, HCO-60 5 w/v%, 30 minutes): 0.30 μm
Particle size (average) ([1]; diameter of beads 0.5-0.75 mm, compound 40 w/v%, HCO-60 5 w/v%, 30 minutes): 0.33 μm
Particle size (average) ([1]; diameter of beads 1-1.5 mm, compound 40 w/v%, HCO-60 5 w/v%, 30 minutes (Table 5)): 0.46 μm
Particle size (average) ([1]; dispersant Decagly.ester 10 w/v%, compound 4 w/v%, beads 1 to 1.4 mm, 45 minutes): 0.6 μm
Particle size (average) ([1]; dispersant F68 10 w/v%, compound 4 w/v%, beads 1 to 1.4 mm, 45 minutes): 0.9 μm
Particle size (average) ([1]; dispersant HCO-60 2.5 w/v%, compound 20 w/v%, beads 1 to 1.5 mm, 30 minutes): 0.54 μm
Particle size (average) ([1]; dispersant HCO-60 5 w/v%, compound 20 w/v%, beads 1 to 1.5 mm, 30 minutes (Table 4)): 0.50 μm
Particle size (average) ([1]; dispersant HCO-60 10 w/v%, compound 4 w/v%, beads 1 to 1.4 mm, 45 minutes): 0.9 μm
Particle size (average) ([1]; dispersant HCO-60 10 w/v%, compound 20 w/v%, beads 1 to 1.5 mm, 30 minutes): 0.45 μm
Particle size (average) ([1]; dispersant Tween 80 10 w/v%, compound 4 w/v%, beads 1 to 1.4 mm, 45 minutes): 0.6 μm
Particle size (average) ([1]; pulverization time 10 minutes, compound 40 w/v%, HCO-60 5 w/v%, beads 0.25 to 0.5 mm): 0.38 μm
Particle size (average) ([1]; pulverization time 20 minutes, compound 40 w/v%, HCO-60 5 w/v%, beads 0.25 to 0.5 mm): 0.33 μm
Particle size (average) ([1]; pulverization time 30 minutes, compound 40 w/v%, HCO-60 5 w/v%, beads 0.25 to 0.5 mm (Table 6)): 0.29 μm
Particle size (average) ([1]; pulverization time 40 minutes, compound 40 w/v%, HCO-60 5 w/v%, beads 0.25 to 0.5 mm): 0.27 μm
Particle size (average) ([1]; pulverization time 50 minutes, compound 40 w/v%, HCO-60 5 w/v%, beads 0.25 to 0.5 mm): 0.26 μm
Particle size (average) ([1]; pulverization time 60 minutes, compound 40 w/v%, HCO-60 5 w/v%, beads 0.25 to 0.5 mm): 0.26 μm
Particle size (average) ([1]; sample 10 w/v%, HCO-60 5 w/v%, beads 1 to 1.5 mm, 30 minutes): 0.56 μm
Particle size (average) ([1]; sample 20 w/v%, HCO-60 5 w/v%, beads 1 to 1.5 mm, 30 minutes): 0.50 μm
Particle size (average) ([1]; sample 40 w/v%, HCO-60 5 w/v%, beads 1 to 1.5 mm, 30 minutes): 0.46 μm
Particle size on storage ([2]; 0 months): 0.7 μm
Particle size on storage ([2]; 1 month): 0.8 μm
Particle size on storage ([2]; 3 months): 1.3 μm
AUC(0-t) at 24 h ([3]; particle size 0.31 μm): 11600 ± 2300 ng·h/mL
AUC(0-t) at 24 h ([3]; particle size 0.66 μm): 10000 ± 1600 ng·h/mL
AUC(0-t) at 24 h ([3]; particle size 1.5 μm): 8100 ± 1200 ng·h/mL
AUC(0-t) at 24 h ([3]; particle size 2.5 μm): 6900 ± 1400 ng·h/mL
SMILES: O=C(NC(=O)c1ccccc1[N+](=O)[O-])Nc1ccc(Oc2ncc(Br)cn2)c(Cl)c1 [Compound No. 3]

SMILES: O=C(NC(=O)c1ccccc1[N+](=O)[O-])Nc1ccc(Oc2ncc(Cl)cn2)c([N+](=O)[O-])c1 [Compound No. 6]
Particle size (average) [1, 4]: 0.72 μm
